The target in assay [1] is T1, α1C Human Adrenergic Receptor (Homo sapiens, UniProt P35348).
T1 construct: The entire coding region of α1C (1401 bp); expressed in transfected cells
T1 sequence (P35348 1-466): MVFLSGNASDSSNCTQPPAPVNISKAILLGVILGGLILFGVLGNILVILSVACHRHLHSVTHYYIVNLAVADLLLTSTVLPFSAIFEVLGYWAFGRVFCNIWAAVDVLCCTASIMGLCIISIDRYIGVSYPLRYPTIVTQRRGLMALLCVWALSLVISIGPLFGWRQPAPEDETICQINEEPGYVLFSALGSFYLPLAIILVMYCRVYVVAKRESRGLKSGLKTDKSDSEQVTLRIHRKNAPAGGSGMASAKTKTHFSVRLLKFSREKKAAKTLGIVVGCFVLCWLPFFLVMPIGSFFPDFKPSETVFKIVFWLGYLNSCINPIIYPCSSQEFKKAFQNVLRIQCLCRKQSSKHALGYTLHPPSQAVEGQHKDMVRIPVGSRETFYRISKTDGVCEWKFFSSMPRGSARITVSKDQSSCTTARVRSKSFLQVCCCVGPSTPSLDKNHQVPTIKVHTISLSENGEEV
Nature of the assay: Radioligand binding, [3H]prazosin, cloned human α1C adrenergic receptor. In outline:
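Antagonist radioligand [3H]prazosin at 0.5 nM labels human α1C receptors in stably transfected LM(tk−) cell membranes over 20 min at 37° C. Phentolamine (10 μM) gives nonspecific binding.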

The target of assay [2] is T2, α1B Human Adrenergic Receptor (Homo sapiens, UniProt P35368).
T2 construct: The entire coding region of α1B (1563 bp); expressed in transfected cells
T2 sequence (P35368 1-520): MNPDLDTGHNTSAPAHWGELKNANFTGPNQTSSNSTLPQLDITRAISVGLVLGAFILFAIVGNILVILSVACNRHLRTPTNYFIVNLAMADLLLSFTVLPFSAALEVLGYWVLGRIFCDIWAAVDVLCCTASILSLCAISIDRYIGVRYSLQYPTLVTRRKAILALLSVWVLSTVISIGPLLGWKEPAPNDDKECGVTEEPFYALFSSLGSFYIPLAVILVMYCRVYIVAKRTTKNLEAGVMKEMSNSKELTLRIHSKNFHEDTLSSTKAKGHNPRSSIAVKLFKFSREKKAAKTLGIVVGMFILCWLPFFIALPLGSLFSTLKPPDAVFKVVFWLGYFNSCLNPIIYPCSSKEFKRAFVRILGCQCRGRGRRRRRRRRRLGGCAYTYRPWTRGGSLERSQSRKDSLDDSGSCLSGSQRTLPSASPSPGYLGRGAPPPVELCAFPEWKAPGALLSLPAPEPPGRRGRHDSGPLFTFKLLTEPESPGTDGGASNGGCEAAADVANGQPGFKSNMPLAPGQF
Description: Radioligand binding, [3H]prazosin, cloned human α1B adrenergic receptor. The essentials: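 Membranes from stably transfected LM(tk−) cells, resuspended in 50 mM Tris-HCl, 1 mM MgCl2, 0.1% ascorbic acid, pH 7.5, were incubated with 0.5 nM [3H]prazosin for 20 min at 37° C. Nonspecific binding defined with 10 μM phentolamine; bound ligand separated by GF/B filtration.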

Assay [3] concerns the target T3, α2A receptor (Homo sapiens, UniProt P08913).
T3 construct: host or cells: LM(tk-) cells, line L-α2A
T3 sequence (P08913 1-465): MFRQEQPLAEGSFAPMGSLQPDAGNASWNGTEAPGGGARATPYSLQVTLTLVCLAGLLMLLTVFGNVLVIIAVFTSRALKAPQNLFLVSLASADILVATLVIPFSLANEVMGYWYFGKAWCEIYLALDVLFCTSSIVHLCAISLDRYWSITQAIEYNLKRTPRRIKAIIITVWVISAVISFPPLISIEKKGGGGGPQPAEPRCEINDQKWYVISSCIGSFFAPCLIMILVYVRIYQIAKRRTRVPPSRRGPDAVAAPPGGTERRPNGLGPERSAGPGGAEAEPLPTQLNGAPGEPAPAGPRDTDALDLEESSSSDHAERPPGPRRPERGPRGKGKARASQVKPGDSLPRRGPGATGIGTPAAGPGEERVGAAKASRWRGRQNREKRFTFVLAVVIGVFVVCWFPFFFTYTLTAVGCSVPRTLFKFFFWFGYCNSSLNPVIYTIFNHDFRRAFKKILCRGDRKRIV
Nature of the assay: Competition binding, [3H]rauwolscine, human α2A receptor. The essentials: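 Equilibrium displacement of [3H]rauwolscine (0.5 nM) measured on membranes from stably transfected LM(tk−) lines, one per α2 subtype, in glycylglycine buffer at pH 7.6. Nonspecific binding set by 10 μM phentolamine; separation by filtration.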

[4] abbreviates: cloned human α1C receptor, LM(tk−) cell membranes, read-out: pKi alpha-1 1c (converted).
[5] abbreviates: cloned human α1B receptor, LM(tk−) cell membranes, read-out: pKi alpha-1 1b (converted).
Setting [6] is: cloned human receptor in LM(tk-) cell membranes, SEM and n in lines below, read-out: pKi alpha-1 1c (converted).
Where [7] appears, read: cloned human receptor in LM(tk-) cell membranes, SEM and n in lines below, read-out: pKi alpha-1 1b (converted).
[8] abbreviates: pKi alpha-1 1c, cloned human receptor in LM(tk-) cell membranes, SEM and n in lines below.
[9] abbreviates: pKi alpha-1 1b, cloned human receptor in LM(tk-) cell membranes, SEM and n in lines below.
Setting [10] is: [3H]rauwolscine, LM(tk-) cell line L-α2A, SEM and n in lines below, read-out: pKi alpha-2 2a (converted).

Molecules are shown by their SMILES. Structures can show the parent of a compound that is named as a salt. Where two headings read alike, the source gives them in different places.

For the molecule `CCC1=C(C(N)=O)C(c2ccc([N+](=O)[O-])cc2)C(C(=O)NCCCN2CCC3(CC2)C(=O)NCN3c2ccccc2)=C(CC)N1` (stereo not drawn) [Example 105, 5-Carboxamido-2,6-diethyl-1,4-dihydro-4-(4-nitrophenyl)-3-{N-[3-(1-phenyl-4-oxo-1,3,8-triazaspiro[4.3]decan-8-yl)propyl]}carboxamidopyridine hydrochloride hydrate], the Ki in assay [1] (setting [4]) is 692 nM; in assay [2] (setting [5]) it was 3160 nM; in assay [3] it was 1260 nM.

With `CC1=C(C#N)C(c2ccc([N+](=O)[O-])cc2)C(C(=O)NCCCN2CCC(c3ccccc3)(c3ccccc3)CC2)=C(C)N1` (stereo not drawn) [Example 37], the Ki was 22.9 nM in assay [1] (setting [6]), 200 nM in assay [2] (setting [7]) and 708 nM in assay [3].

Turning to `COC(=O)C1=C(C)NC(C)=C(C(=O)NCCCN2CCC(c3ccccc3)(c3ccccc3)CC2)C1c1cccnc1` (stereo not drawn) [Example 14, 1,4-Dihydro-3-methoxycarbonyl-2.6-dimethyl-5-(N-(3-(4,4-diphenylpiperidin-1-yl)propyl)carboxamido)-4-(3-pyridyl)pyridine], the Ki is 40.7 nM in assay [1] (setting [8]), 2630 nM in assay [2] (setting [9]) and 2880 nM in assay [3] (setting [10]).

As to `COC(=O)C1=C(C)NC(C)=C(C(=O)NCCCN2CCC(c3ccccc3)(c3ccccc3)CC2)C1c1ccc(-c2ccccc2)cc1` (stereo not drawn) [Example 7], the results for the Ki in assay [1] (setting [6]), in assay [2] (setting [7]) and in assay [3] were 617 nM, 288 nM and 3800 nM, respectively.

As to `COC(=O)C1=C(C)NC(C)=C(C(=O)NCCCN2CCC(c3ccccc3)(c3ccccc3)CC2)C1c1ccc(C(F)(F)F)cc1` (stereo not drawn) [Example 1], the Ki in assay [1] (setting [6]) is 30.2 nM; in assay [2] (setting [7]) it was 407 nM; in assay [3], 2400 nM.

In the case of `CCC1=C(C(N)=O)C(c2ccc([N+](=O)[O-])cc2)C(C(=O)NCCCN2CCC(c3ccc(OC)cc3)(c3ccc(OC)cc3)CC2)=C(CC)N1` (stereo not drawn) [Example 103, 5-Carboxamido-2,6-diethyl-1,4-dihydro-3-{N-[3-(4,4-bis-(4-methoxyphenyl)piperidin-1-yl)propyl]}carboxamido}-4-(4-nitrophenyl)pyridine hydrochloride], the values for the Ki in assay [1] (setting [4]), in assay [2] (setting [5]) and in assay [3] were 10.7 nM, 182 nM and 490 nM, respectively.

For `CCC1=C(C(N)=O)C(c2ccc([N+](=O)[O-])cc2)C(C(=O)NCCCN2CCN(c3ccccc3OC)CC2)=C(CC)N1` (stereo not drawn) [Example 125, 5-Carboxamido-2,6-diethyl-1,4-dihydro-3-(N-{3-[4-(2-methoxyphenyl)piperazin-1-yl]propyl})carboxamido-4-(4-nitrophenyl)pyridine], the Ki is 1.15 nM in assay [1] (setting [4]); 129 nM in assay [2] (setting [5]); 26.9 nM in assay [3] ([3H]rauwolscine, human α2A receptor, LM(tk−) cells, read-out: pKi alpha-2 2a (converted)).

Consider `CC1=C(C(N)=O)C(c2ccc([N+](=O)[O-])cc2)C(C(=O)NCCN2CCC(c3ccccc3)(c3ccccc3)CC2)=C(C)N1` (stereo not drawn) [Example 54, 5-Carboxamide-1,4-dihydro-2,6-dimethyl-4-(4-nitrophenyl)-3-{N-[2-(4,4-diphenylpiperidin-1-yl)ethyl]}carboxamidopyridine hydrochloride hydrate], for which the Ki in assay [1] (setting [8]) is 12.3 nM; in assay [2] (setting [9]), 174 nM; in assay [3] (setting [10]), 468 nM.

As to `COC(=O)C1=C(C)NC(C)=C(C(=O)NCCCN2CCC(c3ccccc3)(c3ccccc3)CC2)C1c1ccc(F)cc1` (stereo not drawn) [Example 20, 4-(4-Fluorophenyl)-1,4-dihydro-3-methoxycarbonyl-2,6-dimethyl-5-(N-(3-(4,4-diphenylpiperidin-1-yl)propyl)carboxamido)pyridine], the Ki in assay [1] (setting [6]) was 3.8 nM; in assay [2] (setting [7]), 120 nM; in assay [3], 1780 nM.

Take `COC(=O)C1=C(C)NC(C)=C(C(=O)NCCCN2CCC(c3ccccc3)(c3ccccc3)CC2)C1c1cc(OC)c(OC)c(OC)c1` (stereo not drawn) [Example 27]: the Ki in assay [1] (setting [6]) is 3.63 nM; in assay [2] (setting [7]), 324 nM; in assay [3], 1950 nM.

For `COC(=O)C1=C(C)NC(C)=C(C(=O)NCCCN2CCC(c3ccccc3)(c3ccccc3)CC2)C1c1ccc2c(c1)OCO2` (stereo not drawn) [Example 11, 1,4-Dihydro-3-methoxycarbonyl-2,6-dimethyl-4-(3,4-methylenedioxyphenyl)-5-(N-(3-(4,4-diphenylpiperidin-1-yl)propyl)carboxamido)pyridine], the figures for the Ki in assay [1] (setting [6]), in assay [2] (setting [7]) and in assay [3] were 1.12 nM, 229 nM and 1120 nM, respectively.

On to `COC(=O)C1=C(C)NC(C)=C(C(=O)NCCCN2CCC(c3ccccc3)(c3ccccc3)CC2)C1c1ccc(Cl)c([N+](=O)[O-])c1` (stereo not drawn) [Example 16, 4-(4-Chloro-3-nitrophenyl)-1,4-dihydro-3-methoxycarbonyl-2,6-dimethyl-5-(N-(3-(4,4-diphenylpiperidin-1-yl)propyl)carboxamido)pyridine], for which the Ki in assay [1] (setting [6]) was 5.89 nM; in assay [2] (setting [7]), 174 nM; in assay [3], 1120 nM.

As for `CCC1=C(C(N)=O)C(c2ccc([N+](=O)[O-])cc2)C(C(=O)NCCCN2CCC(c3ccccc3)(c3ccccc3)CC2)=C(CC)N1` (stereo not drawn) [Example 42, 5-carboxamido-2,6-diethyl-1,4-dihydro-4-(4-nitrophenyl)-3-{N-[3-(4,4-diphenylpiperidin-1-yl)propyl]}carboxamidopyridine], the results for the Ki in assay [1] (setting [8]), in assay [2] (setting [9]) and in assay [3] (setting [10]) were 1.26 nM, 282 nM and 324 nM, respectively.

For the molecule `COC(=O)C1=C(C)NC(C)=C(C(=O)NCCCN2CCC(c3ccccc3)(c3ccccc3)CC2)C1c1ccc(OC)c(OC)c1` (stereo not drawn) [Example 26], the Ki in assay [1] (setting [6]) was 7.08 nM; in assay [2] (setting [7]), 437 nM; in assay [3], 2140 nM.

On to `COC(=O)C1=C(C)NC(C)=C(C(=O)NCCCN2CCC(c3ccccc3)(c3ccccc3)CC2)C1c1cc[n+]([O-])cc1` (stereo not drawn) [Example 9, 1,4-Dihydro-3-methoxycarbonyl-2,6-Dimethyl-4-(1-oxido-4-pyridyl)-5-(N-(3-(4,4-diphenylpiperidin-1-yl)propyl)carboxamido)pyridine], for which the Ki in assay [1] (setting [8]) is 24 nM; in assay [2] (setting [9]), 339 nM; in assay [3] (setting [10]), 2190 nM.

With `COC(=O)C1=C(C)NC(C)=C(C(=O)NCCCN2CCC(c3ccccc3)(c3ccccc3)CC2)C1c1ccc(C(=O)OC)cc1` (stereo not drawn) [Example 25, 1,4-Dihydro-3-methoxycarbonyl-4-(4-methoxycarbonylphenyl)-2,6-dimethyl-5-(N-(3-(4,4-diphenylpiperidin-1-yl)propyl)carboxamide)pyridine], the Ki was 33.9 nM in assay [1] (setting [6]), 331 nM in assay [2] (setting [7]) and 1510 nM in assay [3].

(Values after patent US6608086B2, “Dihydropyridines and new uses thereof” (Synaptic Pharmaceutical Corporation, priority 1993, dated 2003).)
